Results on one substance are retold here after patent US6492344B1, “Syndecan enhancer element and syndecan stimulation of cellular differentiation” (Biotie Therapies Corp., priority 1993, dated 2002).

Entries after “also recorded” stand apart in the source; their conditions may differ.

In one assay the test system is 3T3NIH cells. Description: 125-IdU incorporation (DNA synthesis) assay in 3T3NIH cells. It counts as cell-based, mouse. As to conditions: pFiRE transfected 3T3NIH cells; 10 ng/ml growth factor (2 ng/ml TGF-β) or 5% FCS. The source says: Effect of Various Growth Factors on Enhancer Activation in NIH3T3 Cells. Plasmid pFiRE was transfected into 3T3NIH cells as described, supra. The cells were starved in DMEM medium supplemented with 5% fetal calf serum to about 70% confluence. Fetal calf serum was then replaced with 2% carboxy-methyl-Sephadex eluted fetal calf serum (CMS) 12 hrs before adding the growth factors. Various growth factors in the same medium, 5% fetal calf serum (FCS) supplemented medium or a control containing the medium, without any added growth factors were incubated with the transfected cells for 2 days, and CAT activity was measured. The effect of 10 ng/ml of FGF-2, FGF-1, FGF-4, FGF-7 (KGF), EGF, IGF1, TGFα, IFNγ, and PDGF and 2 ng/ml TGF-β were tested. The human recombinant growth factors were purchased from Peprotech (FGF-1, -2, and -7), Boehringer (FGF-2) or from Calbiochem (PDGF) TGF-β was purchased from Sigma. The effect of the added growth factors and FCS on DNA synthesis was also tested by a 125-IdU incorporation assay. This cell proliferation assay was carried out by incubating cells for 4-6 hrs with 0.25 μCi/ml 5-[^125I]iodo-2′-deoxyuridine (IdU, Amersham), washed several times with PBS and solubilized in 1 M NaOH. Radioactivity was measured using a gamma counter (Wallac).

The subject of assay [1] is syndecan-1 expression in 3T3 cells. Briefly: Quantitation of cell surface syndecan in 3T3 cells exposed to growth factors. As to conditions: FGF-2 administered alone. It counts as cell-based, mouse. As for the experimental part:
Growth factors enhance syndecan expression. NMuMG mouse mammary epithelial cells and 3T3 (NIH) mouse fibroblasts were routinely cultured in bicarbonate-buffered Dulbecco's modified Eagle's medium (DMEM; GIBCO) containing 10% FCS (GIBCO) and antibiotics, as previously described (Elenius et al., J. Biol. Chem. 265:17837-17843 (1990)). For experiments, cells were plated at equal density on culture dishes (Nunc) and grown to 60-70% confluency. Twenty-four hours before supplementing the medium with growth factor(s), the medium on the cells was replaced with fresh medium containing 2% CMS-FCS (Vogel et al., Proc. Natl. Acad. Sci. USA 75:2810-2814 (1978)). Equally treated cultures without growth factor addition served as negative controls. […] For quantitation and isolation of cell surface syndecan, media were discarded at time points indicated in the text and the cell layers were washed twice with ice cold phosphate buffered saline (PBS). […] After subsequent washes by resuspension and centrifugation the cell numbers were measured by counting the nuclei with a Coulter Counter (Coulter Electronics).
For quantitation of syndecan intercalated into the cell membrane, syndecan ectodomain was released by incubating washed cells in 20 μg/ml bovine pancreatic trypsin (Type III; Sigma) in PBS for 10 min on ice bath. […]

Assay [2] deals with FGF-inducible Response Element (FiRE). Briefly: FiRE / Syn Prom CAT reporter in MCA3D keratinocytes. It counts as cell-based. Conditions: MCA3D mouse keratinocytes transfected with FiRE construct. As for the experimental part: The cells used for proximal promoter constructs were 3T3 NIH, S115 (either hormone-treated or not) and nMuMG cells. For enhancer constructs we used 3T3 NIH cells grown in 2% CMS medium and MCA 3D cells grown in Ham's medium. 3T3 NIH cells were also used to test the effect of growth factors in 2% CMS medium with 10 ng/ml FGF-2 and 2ng/ml TGFβ-1. MCA 3D cells were used to test the effect of 10 ng/ml KGF.
FiRE is Induced Selectively by FGF-7 in Keratinocytes. The ability of FiRE to enhance transcription was tested in the mouse keratinocyte cell line MCA3D (Kuliz-Martin et al., Carcinogenesis 4:1367-1377 (1983)). MCA3D cells were transfected as described supra for mouse NIH3T3 cells. Following transfection, the cells were treated with fetal calf serum, PDGF, FGF-1, FGF-2, and FGF-7 as described supra for the NIH3T3 cells.

A further assay deals with MCA3D cells. Briefly: Cell proliferation of MCA3D keratinocytes. It counts as cell-based. Conditions: MCA3D mouse keratinocytes.

Take “FGF-2: Basic fibroblast growth factor (FGF-2 or bFGF); recombinant human”: the “DNA synthesis / cell proliferation (125-IdU incorporation)” value in the assay on 3T3NIH cells is reported as “significant increase in DNA synthesis”. Further, the syndecan-1 expression result in assay [1] was “shows enhancement of syndecan-1 expression”. In addition, the FiRE activation entry in assay [2] is on record as “failed to activate FiRE; also recorded: only slightly activated FiRE”. Also, the cell proliferation result in the assay with MCA3D cells is “stimulated cell proliferation”.
